Results reported in patent EP1247803A2, “Indolinone compounds suitable for modulation of protein kinases” (Sugen, Inc., priority 1996, dated 1998).

Legend:
MET = MET biochemical kinase assay; design: species or system human; concentration or dose not given beside the values
How it was run: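 Plates coated with anti-rabbit Fc bind a rabbit anti-MET antibody that captures receptor from cell lysates; unbound protein is washed off before compound and ATP-containing kinase buffer go in.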

FLK-1 receptor = molecular target: T1, FLK-1 receptor (Mus musculus, UniProt P35918); test: FLK-1 ELISA (kinase activity of the FLK-1 receptor in FLK-1/NIH3T3 cells, VEGF stimulated); format: cell-based; design: concentration or dose not given beside the values
T1 construct: expressed in transfected cells; host or cells: NIH3T3 C7#3
How it was run: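 NIH3T3 C7#3 cells expressing FLK-1 were seeded at 25.000 cells/well, serum-starved overnight in 0.1% FBS, then treated with compound for two hours at 37°C (final DMSO 0.5%) before VEGF stimulation. Receptor was captured on anti-rabbit IgG-coated ELISA plates bearing affinity-purified anti-FLK-1 antiserum.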

T1 sequence (P35918 20-1345): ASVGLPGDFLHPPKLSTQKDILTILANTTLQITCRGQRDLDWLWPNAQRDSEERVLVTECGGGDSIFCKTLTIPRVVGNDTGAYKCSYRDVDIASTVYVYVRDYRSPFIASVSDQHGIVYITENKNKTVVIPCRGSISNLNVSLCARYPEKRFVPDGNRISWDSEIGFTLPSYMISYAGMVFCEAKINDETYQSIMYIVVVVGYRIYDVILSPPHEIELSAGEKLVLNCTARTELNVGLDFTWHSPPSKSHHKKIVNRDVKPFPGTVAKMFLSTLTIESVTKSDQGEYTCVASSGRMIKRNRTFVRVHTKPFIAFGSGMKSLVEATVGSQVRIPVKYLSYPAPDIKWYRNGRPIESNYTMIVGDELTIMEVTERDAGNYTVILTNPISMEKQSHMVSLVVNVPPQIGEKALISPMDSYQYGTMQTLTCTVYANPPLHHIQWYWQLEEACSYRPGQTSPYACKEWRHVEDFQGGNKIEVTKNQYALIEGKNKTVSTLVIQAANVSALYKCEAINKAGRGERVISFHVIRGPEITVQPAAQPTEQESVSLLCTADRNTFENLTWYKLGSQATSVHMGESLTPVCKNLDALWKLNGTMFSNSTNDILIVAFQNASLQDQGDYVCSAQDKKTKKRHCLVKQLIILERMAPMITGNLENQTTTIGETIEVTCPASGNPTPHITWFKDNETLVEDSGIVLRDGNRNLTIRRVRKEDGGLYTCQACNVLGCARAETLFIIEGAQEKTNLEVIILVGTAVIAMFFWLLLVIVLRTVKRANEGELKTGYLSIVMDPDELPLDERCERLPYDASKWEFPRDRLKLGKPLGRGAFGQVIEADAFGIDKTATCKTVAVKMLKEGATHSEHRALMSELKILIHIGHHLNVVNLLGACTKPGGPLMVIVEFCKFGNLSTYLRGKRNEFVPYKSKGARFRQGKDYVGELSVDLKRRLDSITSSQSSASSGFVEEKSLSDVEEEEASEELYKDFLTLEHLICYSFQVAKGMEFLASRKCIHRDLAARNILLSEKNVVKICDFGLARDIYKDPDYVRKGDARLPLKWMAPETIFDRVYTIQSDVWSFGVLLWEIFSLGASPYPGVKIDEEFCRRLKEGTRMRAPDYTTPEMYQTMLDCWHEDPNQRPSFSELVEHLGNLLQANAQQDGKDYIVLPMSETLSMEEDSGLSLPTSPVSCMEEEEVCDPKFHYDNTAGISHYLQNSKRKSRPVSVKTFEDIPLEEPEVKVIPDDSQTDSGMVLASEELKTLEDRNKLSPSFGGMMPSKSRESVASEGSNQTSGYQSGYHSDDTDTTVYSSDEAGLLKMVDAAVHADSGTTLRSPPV

Compound | Met Kinase % Inhibition (MET) [%] | Fik Kinase %Inhibition (FLK-1 receptor) [%]
COc1c(I)cc(C=C2C(=O)Nc3ccc(S(=O)(=O)Nc4ccc(C(F)(F)F)cc4)cc32)cc1C(C)(C)C [10732/E11] | 41.4 | 16.2
COc1c(O)ccc(C=C2C(=O)Nc3ccc(Br)c(C)c32)c1[N+](=O)[O-] [10733/C11] | 35.1 | 42.8
CNS(=O)(=O)c1ccc2c(c1)C(=Cc1cc([N+](=O)[O-])c(OC)c(C(C)(C)C)c1)C(=O)N2 [10733/D03] | 32.8 | 33.2
COc1c(C(C)(C)C)cc(C=C2C(=O)Nc3c(Br)cc(Br)cc32)cc1C(C)(C)C [10733/A04] | 24.0 | -11.2
Cc1c(Br)ccc2c1C(=Cc1cc([N+](=O)[O-])ccc1O)C(=O)N2 [10733/C10] | 20.5 | -7.6
Cc1cc(C=C2C(=O)Nc3ccc(Br)c(C)c32)cc(C)c1OCc1ccccc1 [10733/C07] | 10.2 | 1.2
COc1cccc(O)c1C=C1C(=O)Nc2c(Br)cc(Br)cc21 [10717/A10] | 71.6 | -3.3
Cc1cc(C=C2C(=O)Nc3c(Br)cc(Br)cc32)cc(C)c1OCc1ccccc1 [10733/A07] | 27.2 | -27.4
COc1c(C)cc(C=C2C(=O)Nc3ccc(Br)c(C)c32)cc1C [10733/C06] | 4.1 | 4.7
Cc1c(Br)ccc2c1C(=Cc1cc(C(C)(C)C)c(OCc3ccccc3)c(C(C)(C)C)c1)C(=O)N2 [10733/C05] | 23.2 | 11.5
O=C1Nc2ccc(S(=O)(=O)N3CCOCC3)cc2C1=CC(c1cccs1)C(F)(F)F (stereo not drawn) [10732/F02] | 55.6 | 7.0
COc1cc(Br)cc(C=C2C(=O)Nc3ccc(Br)c(C)c32)c1O [10733/C08] | 85.7 | -28.5
COc1c(C(C)C)cc(C=C2C(=O)Nc3ccc(S(=O)(=O)N4CCOCC4)cc32)cc1C(C)C [10732/F03] | 68.6 | 31.9
CC(C)(C)c1cc(C=C2C(=O)Nc3ccc(I)cc32)cc(C(C)(C)C)c1OCc1ccccc1 [10733/B05] | 61.3 | -1.1
CNS(=O)(=O)c1ccc2c(c1)C(=Cc1ccco1)C(=O)N2 [10718/D10] | 55.3 | 15.0
COc1c(Br)cc(C=C2C(=O)Nc3ccc(S(=O)(=O)Nc4ccc(C(F)(F)F)cc4)cc32)cc1C(C)(C)C [10732/E07] | 15.2 | 21.3
COc1c(C(C)(C)C)cc(C=C2C(=O)Nc3ccc(Br)c(C)c32)cc1C(C)(C)C [10733/C04] | 18.4 | 8.4
CC(C)(C)c1cc(C=C2C(=O)Nc3c(Br)cc(Br)cc32)cc(I)c1OCc1ccccc1 [10733/A02] | 74.6 | -5.2
COc1c([N+](=O)[O-])cc(C=C2C(=O)Nc3c(Br)cc(Br)cc32)cc1C(C)(C)C [10733/A03] | 24.9 | 45.0
CC(C)(C)c1cc(C=C2C(=O)Nc3ccc(S(=O)(=O)Nc4ccc(C(F)(F)F)cc4)cc32)cc(I)c1OCc1ccccc1 [10733/E02] | 60.5 | 0.8
COc1c(Br)cc(C=C2C(=O)Nc3ccc(S(=O)(=O)N4CCOCC4)cc32)cc1C(C)(C)C [10732/F07] | 65.5 | 31.0
COc1cc(Br)c(O)c(C=C2C(=O)Nc3ccc(S(=O)(=O)Nc4ccc(C(F)(F)F)cc4)cc32)c1 [10718/E03] | 95.3 | 10.0
Cc1c(Br)ccc2c1C(=Cc1cc(Br)ccc1O)C(=O)N2 [10733/C09] | 16.3 | -18.0
COc1c(C)cc(C=C2C(=O)Nc3c(Br)cc(Br)cc32)cc1C [10733/A06] | 33.7 | -16.6

Compound | Met Kinase % Inhibition (MET) [%] | Fik Kinase %Inhibition (FLK-1 receptor) [%]
COc1ccc(C=C2C(=O)Nc3ccc(S(=O)(=O)Nc4ccc(C(F)(F)F)cc4)cc32)cc1C(C)(C)C [10732/E05] | 2.2 | 18.7
O=C1Nc2c(Br)cc(Br)cc2C1=Cc1cc(Br)ccc1O [10733/A09] | 22.1 | -11.9
CNS(=O)(=O)c1ccc2c(c1)C(=Cc1cc(I)c(OC)c(C(C)(C)C)c1)C(=O)N2 [10732/D11] | 48.6 | 18.8
COc1c(Br)cc(C=C2C(=O)Nc3ccc(CCCl)cc32)cc1C(C)(C)C [10732/G07] | 23.9 | 4.6
COc1c(C)cc(C=C2C(=O)Nc3ccc(I)cc32)cc1C [10733/B06] | 71.4 | 4.6
CNS(=O)(=O)c1ccc2c(c1)C(=Cc1cc(Br)cc(OC)c1O)C(=O)N2 [10733/D08] | 80.0 | -8.3
O=C1Nc2ccc(CCCl)cc2C1=CC(c1cccs1)C(F)(F)F (stereo not drawn) [10732/G02] | 39.5 | 8.1
CC(C)(C)c1cc(C=C2C(=O)Nc3ccc(CCCl)cc32)ccc1OCc1ccccc1 [10732/G06] | 16.2 | 26.5
O=C1Nc2ccc(I)cc2C1=Cc1cc(Br)ccc1O [10733/B09] | 64.5 | -2.6
CC(C)(C)c1cc(C=C2C(=O)Nc3ccc(S(=O)(=O)Nc4ccc(C(F)(F)F)cc4)cc32)cc(Cl)c1OCc1ccccc1 [10732/E10] | 1.6 | 16.7
O=C1Nc2c(Br)cc(Br)cc2C1=Cc1cc([N+](=O)[O-])ccc1O [10733/A10] | 21.1 | -9.3
CC(C)(C)c1cc(C=C2C(=O)Nc3ccc(S(=O)(=O)N4CCOCC4)cc32)cc(Br)c1OCc1ccccc1 [10732/F08] | 76.6 | 12.6
Cc1c(Br)ccc2c1C(=Cc1cc(I)c(OCc3ccccc3)c(C(C)(C)C)c1)C(=O)N2 [10733/C02] | 71.8 | 5.8
COc1c(C(C)C)cc(C=C2C(=O)Nc3ccc(S(=O)(=O)Nc4ccc(C(F)(F)F)cc4)cc32)cc1C(C)C [10732/E03] | 3.9 | 16.7
CNS(=O)(=O)c1ccc2c(c1)C(=Cc1cc(I)c(OCc3ccccc3)c(C(C)(C)C)c1)C(=O)N2 [10733/D02] | 63.4 | 3.1
COc1cc(Br)cc(C=C2C(=O)Nc3ccc(I)cc32)c1O [10733/B08] | 65.5 | -16.0
COc1c(Cl)cc(C=C2C(=O)Nc3ccc(S(=O)(=O)Nc4ccc(C(F)(F)F)cc4)cc32)cc1C(C)(C)C [10732/E09] | 18.1 | 15.3
COc1ccc(C=C2C(=O)Nc3ccc(S(=O)(=O)N4CCOCC4)cc32)cc1C(C)(C)C [10732/F05] | 58.9 | 37.3
COc1c([N+](=O)[O-])cc(C=C2C(=O)Nc3ccc(I)cc32)cc1C(C)(C)C [10733/B03] | 62.2 | 3.1
COc1c(O)ccc(C=C2C(=O)Nc3ccc(I)cc32)c1[N+](=O)[O-] [10733/B11] | 36.6 | 22.5
CNS(=O)(=O)c1ccc2c(c1)C(=Cc1c(C)[nH]c(C(=O)OC)c1C(=O)OC)C(=O)N2 [10718/D07] | 26.1 | 7.8
CCOC(=O)c1c(C)[nH]c(C=C2C(=O)Nc3ccc(S(=O)(=O)Nc4ccc(C(F)(F)F)cc4)cc32)c1C [10718/E02] | 46.3 | 19.7
CC(C)(C)c1cc(C=C2C(=O)Nc3ccc(CCCl)cc32)cc(Cl)c1OCc1ccccc1 [10732/G10] | 45.7 | 14.0
CC(C)(C)c1cc(C=C2C(=O)Nc3ccc(S(=O)(=O)Nc4ccc(C(F)(F)F)cc4)cc32)cc(Br)c1OCc1ccccc1 [10732/E08] | 29.4 | 13.6
